Experimental findings from ChEMBL document CHEMBL5505958, “Optimization of sequence and chiral content enhances therapeutic potential of tilapia piscidin peptides” (Eur J Med Chem, 2024) are described below.

The subject of data set [1] is Klebsiella pneumoniae. Kind of data set: Antibacterial activity against Klebsiella pneumoniae BAA 2473 assessed as inhibition of bacterial growth in presence of ciprofloxacin. In kind it is functional.
Data set [2] concerns Staphylococcus aureus. Kind of data set: Antibacterial activity against Staphylococcus aureus 10780 assessed as inhibition of bacterial growth incubated for 16 to 20 hrs. In kind it is functional. The note with it: time 16-20 hrs.
In data set [3] the test system is Klebsiella pneumoniae. Kind of data set: Antibacterial activity against Klebsiella pneumoniae BAA 2473 assessed as ciprofloxacin MIC. In kind it is functional.
The subject of data set [4] is Klebsiella pneumoniae. Kind of data set: Antimicrobial activity against drug-resistant Klebsiella pneumoniae BAA 2473 infected in C57BL/6 mouse assessed as reduction in bacterial load at 5 mg/kg, po administered for 2 hrs and measured at 24 hrs. In kind it is functional, organism-based. Particulars: time 26.0 hrs.
In data set [5] the test system is Klebsiella pneumoniae. Kind of data set: Antibacterial activity against Klebsiella pneumoniae BAA 2473 assessed as doxycycline MIC. In kind it is functional.
Data set [6] concerns Klebsiella oxytoca. Kind of data set: Antibacterial activity against Klebsiella oxytoca 13985 assessed as inhibition of bacterial growth incubated for 16 to 20 hrs. In kind it is functional. Particulars: time 16-20 hrs.
Data set [7] concerns Pseudomonas aeruginosa. Kind of data set: Bactericidal activity against Pseudomonas aeruginosa 19660 assessed as inhibition of bacterial growth incubated for 16 to 20 hrs. In kind it is functional. The note with it: time 16-20 hrs.
Data set [8] deals with Klebsiella pneumoniae. Kind of data set: Antibacterial activity against Klebsiella pneumoniae BAA 2473 assessed as bacterial eradication measured at 10 hrs. In kind it is functional, organism-based.
Data set [9] concerns Cell membrane. Kind of data set: Induction of outer cell membrane permeabilization in Klebsiella pneumoniae BAA 2473 assessed as increase in fluorescence intensity by PI staining based analysis. In kind it is cell membranes.
For data set [10], the system named is Erythrocyte. Kind of data set: Hemolytic activity in human Red blood cells assessed as hemolysis at 200 uM incubated for 1 hrs. In kind it is toxicity, cell-based.
Data set [11] concerns Klebsiella pneumoniae. Kind of data set: Antibacterial activity against Klebsiella pneumoniae BAA 2473 assessed as inhibition of bacterial growth in presence of meropenem. In kind it is functional.
For data set [12], the system named is Klebsiella pneumoniae. Kind of data set: Antibacterial activity against Klebsiella pneumoniae BAA 2473 assessed as inhibition of bacterial growth in presence of doxycycline. In kind it is functional.
For data set [13], the system named is Klebsiella pneumoniae. Kind of data set: Bactericidal activity against Klebsiella pneumoniae TL 297 assessed as inhibition of bacterial growth incubated for 16 to 20 hrs. The note with it: time 16-20 hrs. In kind it is functional.
Data set [14] concerns Klebsiella pneumoniae. Kind of data set: Synergistic antibacterial activity against Klebsiella pneumoniae BAA 2473 assessed as fractional inhibitory concentration index in presence of ciprofloxacin by checkerboard assay. In kind it is functional.
For data set [15], the system named is Klebsiella oxytoca. Kind of data set: Bactericidal activity against Klebsiella oxytoca 13985 assessed as inhibition of bacterial growth incubated for 16 to 20 hrs. In kind it is functional. Particulars: time 16-20 hrs.
The subject of data set [16] is Pseudomonas aeruginosa. Kind of data set: Antibacterial activity against Pseudomonas aeruginosa 19660 assessed as inhibition of bacterial growth incubated for 16 to 20 hrs. In kind it is functional. The note with it: time 16-20 hrs.
In data set [17] the test system is Klebsiella pneumoniae. Kind of data set: Antibacterial activity against Klebsiella pneumoniae TL 297 assessed as inhibition of bacterial growth incubated for 16 to 20 hrs. In kind it is functional. Particulars: time 16-20 hrs.
Data set [18] relates to Klebsiella pneumoniae. Kind of data set: Synergistic antibacterial activity against Klebsiella pneumoniae BAA 2473 assessed as fractional inhibitory concentration index in presence of doxycycline by checkerboard assay. In kind it is functional.
Data set [19] relates to Klebsiella pneumoniae. Kind of data set: Antimicrobial activity against drug-resistant Klebsiella pneumoniae BAA 2473 infected in C57BL/6 mouse assessed as fold reduction in bacterial load at 5 mg/kg, po administered for 2 hrs and measured at 24 hrs. In kind it is functional.
Data set [20] is described as follows: Toxicity in C57BL/6 mouse assessed as change in GPT level in liver at 15 mg/kg, iv measured for 7 days. In kind it is organism-based. The note with it: in vivo, 168 h, time 7 day.
Data set [21] concerns Erythrocyte. Kind of data set: Hemolytic activity in human Red blood cells assessed as hemolysis at 3.13 uM incubated for 1 hrs. In kind it is toxicity, cell-based.
The subject of data set [22] is Klebsiella pneumoniae. Kind of data set: Antibacterial activity against Klebsiella pneumoniae BAA 2473 assessed as bacterial eradication measured at 2 hrs. In kind it is functional.
Data set [23] in a line: Toxicity in C57BL/6 mouse assessed as survival rate at 12.5 to 15 mg/kg, iv measured for 7 days. In kind it is organism-based. Particulars: in vivo, dose 12.5-15 mg/kg, time 7 day.
Data set [24] in a line: Toxicity in C57BL/6 mouse assessed as effect on BUN level upto 10 mg/kg, iv measured for 7 days. In kind it is organism-based. The note with it: in vivo, 168 h, time 7 day.
A short description of data set [25]: Toxicity in C57BL/6 mouse assessed as mortality at 20 mg/kg, iv measured for 2 days. Particulars: in vivo, time 2 day. In kind it is organism-based.
A short description of data set [26]: Toxicity in C57BL/6 mouse assessed as change in body weight at 15 mg/kg, iv measured for 7 days. In kind it is organism-based. The note with it: in vivo, 168 h, time 7 day.
Data set [27] in a line: Toxicity in C57BL/6 mouse assessed as increase in creatinine level upto 12.5 mg/kg, iv measured for 7 days. In kind it is organism-based. Particulars: in vivo, 168 h, time 7 day.
Data set [28] can be described thus: Toxicity in C57BL/6 mouse assessed as mortality at 5 to 10 mg/kg, iv measured for 7 days. In kind it is organism-based. Particulars: in vivo, 168 h, dose 5-10 mg/kg, time 7 day.
Data set [29] can be described thus: Toxicity in C57BL/6 mouse assessed as effect on GOT level in liver upto 7.5 mg/kg, iv measured for 7 days. In kind it is organism-based. The note with it: in vivo, 168 h, time 7 day.

Converted amounts (≈) assume the structure as drawn. The source made the active and inactive calls.

Turning to `CC(C)C[C@H](NC(=O)[C@@H](C)NC(=O)[C@@H](CCCCN)NC(=O)[C@H](CC(C)C)NC(=O)[C@@H](CC(C)C)NC(=O)[C@@H](CCCCN)NC(=O)[C@H](CCCCN)NC(=O)[C@@H](CC(C)C)NC(=O)[C@H](N)Cc1ccccc1)C(=O)N[C@H](Cc1ccccc1)C(=O)N[C@H](CO)C(=O)N[C@@H](C)C(=O)N1CCC[C@@H]1C(=O)N[C@H](CCCCN)C(=O)N[C@@H](C)C(=O)N[C@H](CC(C)C)C(=O)N[C@H](CCCCN)C(=O)N[C@@H](CCCNC(=N)N)C(=O)N[C@H](CC(C)C)C(=O)N[C@H](CC(C)C)C(=O)N[C@@H](CCCNC(=N)N)C(=O)N[C@H](CCCNC(=N)N)C(=O)N[C@H](CCCNC(=N)N)C(=O)N[C@@H](CCCNC(=N)N)C(=O)N[C@@H](CCCNC(=N)N)C(=O)O`, the MIC (commonly the smallest concentration in the dilution series that meets the test's criterion for growth inhibition) in [1] amounted to 1.56 µM; in data set [2], 12.5 µM (≈ 38.5 µg/mL); in data set [3], 50 µM; in data set [5] it was 1.56 µM; in data set [6] it was 3.13 µM (≈ 9.64 µg/mL); in data set [11], 0.78 µM. Besides, the MIC in [12] was found to be 0.39 µM; in data set [16], 3.13 µM (≈ 9.64 µg/mL); in data set [17], 6.25 µM (≈ 19.2 µg/mL). Also, the result in [4], in [8] and in [9] was Active. The MBC (as a rule, the lowest tested concentration that kills the bacteria rather than only halting them) turned out to be 3.13 µM (≈ 9.64 µg/mL) in [7], 6.25 µM (≈ 19.2 µg/mL) in data set [13] and 3.13 µM (≈ 9.64 µg/mL) in data set [15]. Besides, the Activity entry in data set [10] and in data set [20] was “Non-Toxic” in each case. Moreover, the “fractional inhibitory concentration index (FICI)” value in data set [14] was found to be 0.562; in data set [18] it was 0.5. Besides, the “fold change (FC)” value in data set [19] is reported as around 10.
Take H-FIHHIIGGLFSAGKAIHRLIRRRRR-OH: in data set [2], the MIC was 0.78 µM. Also, the Activity entry is “Non-Toxic” in data set [21] and 100% in data set [22].
For the compound `CC(C)C[C@H](NC(=O)[C@H](CCCCN)NC(=O)[C@@H](CCCCN)NC(=O)[C@H](CC(C)C)NC(=O)[C@@H](N)Cc1ccccc1)C(=O)N[C@H](CC(C)C)C(=O)N[C@@H](CCCCN)C(=O)N[C@@H](C)C(=O)N[C@H](CC(C)C)C(=O)N[C@@H](Cc1ccccc1)C(=O)N[C@@H](CO)C(=O)N[C@H](C)C(=O)N1CCC[C@H]1C(=O)N[C@@H](CCCCN)C(=O)N[C@H](C)C(=O)N[C@@H](CC(C)C)C(=O)N[C@@H](CCCCN)C(=O)N[C@H](CCCNC(=N)N)C(=O)N[C@@H](CC(C)C)C(=O)N[C@@H](CC(C)C)C(=O)N[C@H](CCCNC(=N)N)C(=O)N[C@@H](CCCNC(=N)N)C(=O)N[C@@H](CCCNC(=N)N)C(=O)N[C@H](CCCNC(=N)N)C(=O)N[C@@H](CCCNC(=N)N)C(=O)O`, the MIC in [1] was found to be 0.097 µM; in [3] it was 0.195 µM; in [5], 6.25 µM; in data set [6], 1.56 µM (≈ 4.8 µg/mL); in [11], 0.78 µM; in [12], 0.39 µM. The MIC in data set [16] was 3.13 µM (≈ 9.64 µg/mL); in data set [17] it was 12.5 µM (≈ 38.5 µg/mL). The outcome in data set [4] was inactive. The results for the MBC in data set [7], in [13] and in data set [15] were 3.13 µM (≈ 9.64 µg/mL), 6.25 µM (≈ 19.2 µg/mL) and 1.56 µM (≈ 4.8 µg/mL), respectively. For the same compound, the result in data set [8] and in data set [9] was Active. Moreover, in data set [23], the survival at 168 h was found to be 80%. The Activity entry in data set [24], in data set [10], in data set [26], in data set [27], in [28] and in data set [29] was “Non-Toxic” each time. Further, the mortality (usually the share of the test organisms that died) at 48 h in data set [25] worked out at 100%. Moreover, the “fractional inhibitory concentration index (FICI)” value in data set [14] was 1.003; in data set [18], 0.375.
